ChEMBL document CHEMBL3046607, “Synthesis and Herbicidal Activity of New 1-Alkyl-3-aryloxypyrazole-4-carboxamide Derivatives” (J Pestic Sci, 2004)
Activity calls are given as the source filed them. No cut-off for these calls is given here.

What was measured:
Elatine triandra [1] = assay: Post-emergence herbicidal activity against Elatine triandra assessed as bleaching of stem/leaf parts; type: functional, organism-based; note: test concentration or dose not given here
Ammannia multiflora [2] = assay: Post-emergence herbicidal activity against Ammannia multiflora assessed as bleaching of stem/leaf parts; type: functional, organism-based
Rotala indica [3] = assay: Post-emergence herbicidal activity against Rotala indica assessed as bleaching of stem/leaf parts; type: functional, organism-based
Lindernia procumbens [4] = assay: Post-emergence herbicidal activity against Lindernia procumbens assessed as bleaching of stem/leaf parts; type: functional, organism-based; note: test concentration or dose not given here
[5] = system: Schoenoplectiella juncoides; assay: Post-emergence herbicidal activity against Schoenoplectiella juncoides assessed as bleaching of stem/leaf parts; type: functional, organism-based; note: test concentration or dose not given here
Ammannia multiflora [6] = assay: Pre-emergence herbicidal activity against Ammannia multiflora at 500 g a.i/ha measured after 14 days; type: functional, organism-based
Elatine triandra [7] = assay: Pre-emergence herbicidal activity against Elatine triandra at 500 g a.i/ha measured after 14 days; type: functional, organism-based
Oryza sativa [8] = assay: Phytotoxicity against Oryza sativa cv. Koshihikari (rice) at 500 g a.i/ha measured after 14 days; type: organism-based; details: in vivo, 336 h
Rotala indica [9] = assay: Pre-emergence herbicidal activity against Rotala indica at 500 g a.i/ha measured after 14 days; type: functional, organism-based
Lindernia procumbens [10] = assay: Pre-emergence herbicidal activity against Lindernia procumbens at 500 g a.i/ha measured after 14 days; type: functional, organism-based
[11] = system: Schoenoplectiella juncoides; assay: Pre-emergence herbicidal activity against Schoenoplectiella juncoides at 500 g a.i/ha measured after 14 days; type: functional, organism-based
Pontederia vaginalis [12] = assay: Pre-emergence herbicidal activity against Monochoria vaginalis at 500 g a.i/ha measured after 14 days; type: functional, organism-based
Cyperus difformis [13] = assay: Pre-emergence herbicidal activity against Cyperus difformis at 500 g a.i/ha measured after 14 days; type: functional, organism-based
Echinochloa oryzicola [14] = assay: Pre-emergence herbicidal activity against Echinochloa oryzicola at 500 g a.i/ha measured after 14 days; type: functional, organism-based
Lindernia procumbens [15] = assay: Pre-emergence herbicidal activity against Lindernia procumbens assessed as bleaching of stem/leaf parts; type: functional, organism-based
Pontederia vaginalis [16] = assay: Pre-emergence herbicidal activity against Monochoria vaginalis assessed as bleaching of stem/leaf parts; type: functional, organism-based
[17] = system: Schoenoplectiella juncoides; assay: Pre-emergence herbicidal activity against Schoenoplectiella juncoides assessed as bleaching of stem/leaf parts; type: functional, organism-based
Cyperus difformis [18] = assay: Pre-emergence herbicidal activity against Cyperus difformis assessed as bleaching of stem/leaf parts; type: functional, organism-based
Echinochloa oryzicola [19] = assay: Pre-emergence herbicidal activity against Echinochloa oryzicola assessed as bleaching of stem/leaf parts; type: functional, organism-based
Cyperus difformis [20] = assay: Post-emergence herbicidal activity against Cyperus difformis assessed as bleaching of stem/leaf parts; type: functional, organism-based; note: test concentration or dose not given here
Pontederia vaginalis [21] = assay: Post-emergence herbicidal activity against Monochoria vaginalis assessed as bleaching of stem/leaf parts; type: functional, organism-based
Echinochloa oryzicola [22] = assay: Post-emergence herbicidal activity against Echinochloa oryzicola assessed as bleaching of stem/leaf parts; type: functional, organism-based
Ammannia multiflora [23] = assay: Pre-emergence herbicidal activity against Ammannia multiflora assessed as bleaching of stem/leaf parts; type: functional, organism-based
Elatine triandra [24] = assay: Pre-emergence herbicidal activity against Elatine triandra assessed as bleaching of stem/leaf parts; type: functional, organism-based
Rotala indica [25] = assay: Pre-emergence herbicidal activity against Rotala indica assessed as bleaching of stem/leaf parts; type: functional, organism-based
Oryza sativa [26] = assay: Phytotoxicity against Oryza sativa cv. Koshihikari (rice) at 33 g a.i/ha measured after 14 days; type: organism-based; details: in vivo, 336 h
Ammannia multiflora [27] = assay: Pre-emergence herbicidal activity against Ammannia multiflora at 33 g a.i/ha measured after 14 days; type: functional, organism-based
Elatine triandra [28] = assay: Pre-emergence herbicidal activity against Elatine triandra at 33 g a.i/ha measured after 14 days; type: functional, organism-based
Rotala indica [29] = assay: Pre-emergence herbicidal activity against Rotala indica at 33 g a.i/ha measured after 14 days; type: functional, organism-based
Lindernia procumbens [30] = assay: Pre-emergence herbicidal activity against Lindernia procumbens at 33 g a.i/ha measured after 14 days; type: functional, organism-based
[31] = system: Schoenoplectiella juncoides; assay: Pre-emergence herbicidal activity against Schoenoplectiella juncoides at 33 g a.i/ha measured after 14 days; type: functional, organism-based
Pontederia vaginalis [32] = assay: Pre-emergence herbicidal activity against Monochoria vaginalis at 33 g a.i/ha measured after 14 days; type: functional, organism-based
Cyperus difformis [33] = assay: Pre-emergence herbicidal activity against Cyperus difformis at 33 g a.i/ha measured after 14 days; type: functional, organism-based
Echinochloa oryzicola [34] = assay: Pre-emergence herbicidal activity against Echinochloa oryzicola at 33 g a.i/ha measured after 14 days; type: functional, organism-based

Compound | Activity (Elatine triandra [1]) | Activity (Ammannia multiflora [2]) | Activity (Rotala indica [3]) | Activity (Lindernia procumbens [4]) | Activity [5] | Activity (Ammannia multiflora [6]) | Activity (Elatine triandra [7]) | Activity (Oryza sativa [8]) | Activity (Rotala indica [9]) | Activity (Lindernia procumbens [15]) | Activity (Pontederia vaginalis [16]) | Activity [17] | Activity (Cyperus difformis [18]) | Activity (Echinochloa oryzicola [19]) | Activity (Cyperus difformis [20]) | Activity (Pontederia vaginalis [21]) | Activity (Echinochloa oryzicola [22]) | Activity (Ammannia multiflora [23]) | Activity (Elatine triandra [24]) | Activity (Rotala indica [25]) | other results
CC(NC(=O)c1cn(C)nc1Oc1cccc(C(F)(F)F)c1)c1ccccc1 (stereo not given) | Active | Active | Active | Active | Active | inactive | inactive | Non-toxic | inactive | Active | Active | Active | Active | Active | Active | Active | Active | Active | Active | Active | Activity (Lindernia procumbens [10]): inactive; Activity [11]: inactive; Activity (Pontederia vaginalis [12]): inactive; Activity (Cyperus difformis [13]): inactive; Activity (Echinochloa oryzicola [14]): inactive
Cn1cc(NC(=O)c2ccccc2)c(Oc2cccc(C(F)(F)F)c2)n1 | Active | Active | Active | Active | Active | inactive | inactive | Non-toxic | inactive | Active | Active | Active | Active | Active | Active | Active | Active | Active | Active | Active | Activity (Lindernia procumbens [10]): inactive; Activity [11]: inactive; Activity (Pontederia vaginalis [12]): inactive; Activity (Cyperus difformis [13]): inactive; Activity (Echinochloa oryzicola [14]): Active
C#CCNC(=O)c1cn(C)nc1Oc1cccc(C(F)(F)F)c1 | Active | Active | Active | Active | Active | inactive | inactive | Non-toxic | inactive | Active | Active | Active | Active | Active | Active | Active | Active | Active | Active | Active | Activity (Lindernia procumbens [10]): inactive; Activity [11]: inactive; Activity (Pontederia vaginalis [12]): inactive; Activity (Cyperus difformis [13]): inactive; Activity (Echinochloa oryzicola [14]): inactive
Cn1cc(C(=O)N2CCCC2)c(Oc2cccc(C(F)(F)F)c2)n1 | Active | Active | Active | Active | Active | inactive | inactive | Non-toxic | inactive | Active | Active | Active | Active | Active | Active | Active | Active | Active | Active | Active | Activity (Lindernia procumbens [10]): inactive; Activity [11]: inactive; Activity (Pontederia vaginalis [12]): inactive; Activity (Cyperus difformis [13]): inactive; Activity (Echinochloa oryzicola [14]): inactive
Cn1cc(C(=O)NC2CC2)c(Oc2cccc(C(F)(F)F)c2)n1 | Active | Active | Active | Active | Active | inactive | inactive | Non-toxic | inactive | Active | Active | Active | Active | Active | Active | Active | Active | Active | Active | Active | Activity (Lindernia procumbens [10]): inactive; Activity [11]: inactive; Activity (Pontederia vaginalis [12]): inactive; Activity (Cyperus difformis [13]): inactive; Activity (Echinochloa oryzicola [14]): inactive
CCCN(CC)C(=O)c1cn(C)nc1Oc1cccc(C(F)(F)F)c1 | Active | Active | Active | Active | Active | inactive | inactive | Non-toxic | inactive | Active | Active | Active | Active | Active | Active | Active | Active | Active | Active | Active | Activity (Lindernia procumbens [10]): inactive; Activity [11]: inactive; Activity (Pontederia vaginalis [12]): inactive; Activity (Cyperus difformis [13]): inactive; Activity (Echinochloa oryzicola [14]): inactive
Cn1cc(C(=O)Nc2ccccc2Cl)c(Oc2cccc(C(F)(F)F)c2)n1 | Active | Active | Active | Active | Active | – | – | – | – | Active | Active | Active | Active | Active | Active | Active | Active | Active | Active | Active | Activity (Oryza sativa [26]): Non-toxic; Activity (Ammannia multiflora [27]): Active; Activity (Elatine triandra [28]): Active; Activity (Rotala indica [29]): Active; Activity (Lindernia procumbens [30]): Active; Activity [31]: Active; Activity (Pontederia vaginalis [32]): Active; Activity (Cyperus difformis [33]): Active; Activity (Echinochloa oryzicola [34]): Active
